Source: PMC3970309 (Infection & Chemotherapy, 2014)

Assay type: in vivo, human
Conditions: percent; CLCr > 60 mg/dL (normal renal function), n = 22

- Patients with plasma teicoplanin >10mg/L: 63%
Substance: teicoplanin
